Assay results as given in ChEMBL document CHEMBL4130588, “Ubiquitin-Specific Inhibitors for the Treatment of Cancers, Autoimmune, and Infectious Diseases” (ACS Med Chem Lett, 2017).

Key:
[1] = Inhibition of recombinant human His6-tagged USP28-5 (1 to 1077 residues) using Ub-Rh110 as substrate pretreated for 30 mins followed by substrate addition measured after 20 mins by fluorescence assay
[2] = target: T1, Ubiquitin carboxyl-terminal hydrolase 25 (Homo sapiens, UniProt Q9UHP3); assay: Inhibition of recombinant human His6-tagged USP25 expressed in baculovirus infected Sf21 insect cells using Ub-Rh110 as substrate pretreated for 30 mins followed by substrate addition measured after 45 mins by fluorescence assay
T1 sequence (Q9UHP3 whole entry): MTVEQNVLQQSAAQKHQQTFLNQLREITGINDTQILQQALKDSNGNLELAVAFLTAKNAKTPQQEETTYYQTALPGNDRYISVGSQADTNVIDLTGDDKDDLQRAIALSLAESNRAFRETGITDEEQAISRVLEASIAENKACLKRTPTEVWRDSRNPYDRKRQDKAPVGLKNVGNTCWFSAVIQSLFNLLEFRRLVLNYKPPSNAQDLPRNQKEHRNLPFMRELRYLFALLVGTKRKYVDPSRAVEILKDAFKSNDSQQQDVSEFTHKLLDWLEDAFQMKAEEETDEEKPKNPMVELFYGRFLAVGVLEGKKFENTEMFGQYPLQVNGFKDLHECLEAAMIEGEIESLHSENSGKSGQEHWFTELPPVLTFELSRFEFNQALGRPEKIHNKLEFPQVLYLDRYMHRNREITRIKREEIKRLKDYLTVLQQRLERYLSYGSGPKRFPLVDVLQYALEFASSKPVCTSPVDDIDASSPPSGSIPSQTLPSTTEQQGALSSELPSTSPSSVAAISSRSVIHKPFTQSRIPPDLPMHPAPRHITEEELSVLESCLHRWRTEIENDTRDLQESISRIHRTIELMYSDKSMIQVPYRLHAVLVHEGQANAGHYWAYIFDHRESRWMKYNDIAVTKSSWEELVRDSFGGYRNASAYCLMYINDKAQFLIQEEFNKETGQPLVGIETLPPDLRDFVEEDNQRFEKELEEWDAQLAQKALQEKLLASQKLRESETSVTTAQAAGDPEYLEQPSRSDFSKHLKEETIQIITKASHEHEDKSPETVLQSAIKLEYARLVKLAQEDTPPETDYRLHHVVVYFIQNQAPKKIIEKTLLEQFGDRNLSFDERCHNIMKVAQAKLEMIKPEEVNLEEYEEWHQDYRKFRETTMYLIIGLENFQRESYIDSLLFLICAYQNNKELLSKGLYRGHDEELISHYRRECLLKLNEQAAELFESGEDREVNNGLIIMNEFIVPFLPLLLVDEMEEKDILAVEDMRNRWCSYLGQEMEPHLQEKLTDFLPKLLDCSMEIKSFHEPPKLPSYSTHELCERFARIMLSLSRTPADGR

| Compound | IC50 [1] [nM] | IC50 [2] [nM] |
| --- | --- | --- |
| Cc1cnc2c(N)c(C(=O)NCCc3ccc(N4CC5CCC(C4)N5)c(F)c3)sc2n1 | < 200 | < 200 |
| Cc1cnc2c(N)c(C(=O)NC[C@@H](C)c3ccc(N4CC5CCC(C4)N5)c(F)c3)sc2n1 | 200 to 2000 | 2000 to 10000 |
| Cc1cnc2c(N)c(C(=O)NCCc3ccc(N4CCNCC4)cc3)sc2n1 | 200 to 2000 |  |
| Cc1cnc2c(N)c(C(=O)NC[C@H](C)c3ccc(N4CC5CCC(C4)N5)c(F)c3)sc2n1 | 200 to 2000 | 2000 to 10000 |
| Cc1cnc2c(N)c(C(=O)NCCc3cc(F)c(N4CC5CCC(C4)N5)cc3F)sc2n1 | < 200 | 200 to 2000 |
| Cc1cnc2c(N)c(C(=O)NCCc3ccc(N4CCNCC4)c(Cl)c3)sc2n1 | 200 to 2000 |  |
| Cc1cnc2c(N)c(C(=O)NCCc3cc(F)c(N4CCNCC4)cc3F)sc2n1 | 200 to 2000 | 2000 to 10000 |
| Cc1cnc2c(N)c(C(=O)NCCc3ccc(N4CC5CCC(C4)N5)c(Cl)c3)sc2n1 | < 200 |  |
